{
  "source": "paper PMC11148772",
  "about": "“Inhibition of protein translational machinery in triple-negative breast cancer as a promising therapeutic strategy” (Cell Reports Medicine, 2024)",
  "key": {"Pharmacokinetics study": {"test": "Pharmacokinetics study", "assay_type": "in vivo, mouse", "conditions": "20 mg/kg oral", "protocol": "Female C57BL/6J mice of 6–7 weeks were purchased from Jackson Laboratory and housed under standard laboratory conditions. SU056 (20 mg/kg) was given by oral gavage. Blood (200–300 μL) was collected retro-orbitally in EDTA-treated tubes after 15, 30, 60, 120, 240 and 360 min of SU056 administration. Blood plasma collected by centrifugation (7000 rpm; 10 min). The concentration of SU056 in plasma was analyzed using an Agilent 6490 iFunnel triple quadrupole mass spectrometer, coupled with an Agilent 1290 infinity II UHPLC. A ZORBAX C18 analytical column (Eclipse Plus, 2.1 × 50 mm, 1.8 μm particle size) was employed in the study. To create the mobile phase, a solution was prepared with 60% water buffered with 0.1% formic acid and 4mM ammonium formate, along with a solution of 40% acetonitrile buffered with 0.1% formic acid. The mobile phase flow rate was set to 0.4 mL/min and the column temperature was adjusted to 30°C. Positive ion mode was selected for operating the electrospray ionization source. Mass spectrometer parameters were optimized as: source temperature 550°C, nebulizer gas (nitrogen) 20 psi, ion spray (IS) voltage 5000 V, collision energy 21 V. Multiple reaction monitoring (MRM) method was used for the detection of SU056 and an internal standard (IS), 4-(2-hydroxyethyl)-6-methoxy-9-phenyl-4,9-dihydrofuro[3,4-b]quinolin-1(3H)-one, a similar analogue of SU056. […] The calibration curve, created with known concentrations of SU056 and IS, enabled the calculation of unknown concentrations of SU056 in plasma at different time points. A 5 μL plasma was taken from each sample and mixed with a 10 μL of IS solution and 990 μL of MS-grade acetonitrile then vortexed for 30 s followed by a 5 min incubation at RT. The mixture was subjected to centrifugation at 11,000 RPM for 15 min at 4°C, leading to the collection of the supernatant which was further cleaned by re-centrifugation. The concentration of SU056 was determined using the HPLC/MS MRM method with each of the three protein-free plasma fractions.[32]"}, "[1]": {"system": "TNBC cells (MDA-MB-231, MDA-MB-468, SUM159, 4T1, EMT6)", "test": "Clonogenic (colony-formation) assay", "assay_type": "cell-based", "protocol": "We performed a clonogenic assay to check the effect of SU056 on clonal expansion potential of MDA-MB-231, MDA-MB-468, SUM159, 4T1, EMT6, and E0771 cells on tissue culture plates. MDA-MB-231 (1000 cells), MDA-MB-468 (1000 cells), SU159 (300 cells), 4T1 (300 cells), and EMT6 (300 cells), were seeded and grown for 24 h in complete media onto 12-well culture plate. Cells were treated with the specific concentrations of SU056 for 7–10 days in complete media. Plates were processed for crystal violet staining, and the number of colonies was counted for each well. Colonies were scanned for confluency area using a Tecan multimode plate reader."}, "4T1 lung metastasis": {"system": "4T1 lung metastasis", "test": "Orthotopic 4T1 model, lung metastasis", "assay_type": "in vivo, mouse", "conditions": "orthotopic 4T1, 50 mg/kg, lung metastatic nodules counted", "excerpt": "Data S2. Effect of SU056 treatment on body weight, metastatic potential and pharmacokinetic profiling of SU056, related to Figure 2 and 3\nHuman, mouse and PDX models of TNBC were used for tumor xenograft studies. SU056 treatment was started when tumors reached around ~25-50 mm3 and continued until the experiment reached its 3-week endpoint. Body weight was monitored throughout the study to understand any change in dietary pattern. Body weights of A) MDA-MB-231, B) MDA-MB-468, C) 4T1, D) EMT6, E) CA1616-PDX-TNBC, F) CA1262-PDX-TNBC, G) MA2821-PDX-TNBC and H) SUTI151-PDX-TNBC over time. I) Tumor volume, J) Tumor weight and K) The bar graph represents lung metastatic nodules in 4T1 orthotopic models. L) Representative images of lungs at the end of the treatment cycle. M) Mice were treated with 20 mg/kg SU056 orally. Cmax (maximum serum concentration), Tmax (time to reach Cmax), and T1/2 (elimination half-life of compound). N) Human liver microsomes were used for the purpose of metabolic profiling.\nData are shown as mean ± SD. Error bars represent ± SD.\n*p < 0.05, **p < 0.01, ***p < 0.001 and ****p < 0.0001. Significant difference compared with respective control by Student’s t test or one-way ANOVA followed by Dunnett’s test."}, "EMT6 cells": {"system": "EMT6 cells", "test": "MTT cell viability assay", "assay_type": "cell-based", "conditions": "Mus musculus, 48 h", "protocol": "(§1) MDA-MB-231 (5000 cells per well), MDA-MB-468 (6000 cells per well), SUM159 (3000 cells per well), 4T1 (2000 cells per well), EMT6 (2000 cells per well), E0771 (3000 cells per well), MCF10A (5000 cells per well) and MCF12A (5000 cells per well) cells were seeded in 96-well culture plates. On the next day, cells were treated with either DMSO or indicated concentrations of SU056 for 48 h 3-(4,5-dimethylthiazol-2-yl)-2,5-diphenyltetrazolium bromide (MTT) (0.5 mg/mL) was dissolved in 1x PBS and 50 μL were added to each well and allowed to form formazan crystals (1–2 h) followed by removal of MTT. Formazan crystals were dissolved in DMSO and plates were scanned at 570nm using a Tecan multimode plate reader."}, "MDA-MB-231 cells": {"system": "MDA-MB-231 cells", "test": "MTT cell viability assay", "assay_type": "cell-based", "conditions": "Homo sapiens, MDA-MB-231, 48 h", "protocol": "as §1"}, "MDA-MB-468 cells": {"system": "MDA-MB-468 cells", "test": "MTT cell viability assay", "assay_type": "cell-based", "conditions": "Homo sapiens, 48 h", "protocol": "as §1"}, "E0771 cells": {"system": "E0771 cells", "test": "MTT cell viability assay", "assay_type": "cell-based", "conditions": "Mus musculus, 48 h", "protocol": "as §1"}, "SUM159 cells": {"system": "SUM159 cells", "test": "MTT cell viability assay", "assay_type": "cell-based", "conditions": "Homo sapiens, 48 h", "protocol": "as §1"}, "4T1 cells": {"system": "4T1 cells", "test": "MTT cell viability assay", "assay_type": "cell-based", "conditions": "Mus musculus, 48 h", "protocol": "as §1"}, "[2]": {"conditions": "mouse, female C57BL/6J mice, plasma"}},
  "note": "Values joined by “and” are separate entries in the source; they are usually repeats but may differ in a detail not shown here. Equal entries are not always repeated.",
  "data": [
    {"smiles": "O=C1OCC2=C1C(c1cccc(F)c1)c1cc3c(cc1N2CCO)OCO3", "note": "(stereo not shown) [SU056, 9-(3-fluorophenyl)-5-(2-hydroxyethyl)-6,9-dihydro-[1,3]dioxolo[4,5-g]furo[3,4-b]quinolin-8(5H)-one]", "values": [
      {"measurement": "time a cytotoxic concentration remained in the plasma", "setting": "Pharmacokinetics study; mice", "result": "up to 6 h"},
      {"measurement": "half-life", "setting": "Pharmacokinetics study; female, C57BL/6J, mouse, plasma, po, 20 mg/kg, female C57BL/6J mice, plasma, read-out: half-life (T1/2)", "result": "~60", "unit": "min"},
      {"measurement": "Cmax", "setting": "Pharmacokinetics study; [2]", "result": "9980 ng/mL and 27 µM"},
      {"measurement": "Tmax", "setting": "Pharmacokinetics study; [2]", "result": 15, "unit": "min"},
      {"measurement": "clonogenic potential", "setting": "[1]; 0.5 μM, all TNBC cell lines", "result": "strong suppression"},
      {"measurement": "number of colonies formed compared to untreated controls", "setting": "[1]; 0.1, 0.25, and 0.5 μM, 7–10 days", "result": "significantly decreased"},
      {"measurement": "decrease in lung metastasis compared to control", "setting": "4T1 lung metastasis", "result": 65.5, "unit": "%"},
      {"measurement": "IC50", "setting": "EMT6 cells", "result": "1500 ± 120", "unit": "nM"},
      {"measurement": "IC50", "setting": "MDA-MB-231 cells", "result": "1270 ± 190", "unit": "nM"},
      {"measurement": "IC50", "setting": "MDA-MB-468 cells", "result": "1360 ± 270", "unit": "nM"},
      {"measurement": "IC50", "setting": "E0771 cells", "result": "1540 ± 140", "unit": "nM"},
      {"measurement": "IC50", "setting": "SUM159 cells", "result": "1170 ± 340", "unit": "nM"},
      {"measurement": "IC50", "setting": "4T1 cells", "result": "7150 ± 1260", "unit": "nM"}
    ]}
  ]
}
